Results from patent US20260201008A1, “SECRETIN-DERIVED GLP1R SELECTIVE AGONISTS” (GUBRA A/S, priority 2023, published 2026).
Numbered stars: 1 amine (or outer) side, 2 acyl side, 3 side chain; on linkers, the order of the positions; unused ones are H or OH. Square brackets hold non-standard residues; d marks the D form. Side chains are listed from the residue outwards. Ends that are not written are not given here. Peptide text beside a SMILES is read from it. * marks the point of attachment. C20 diacid = O=C(O)CCCCCCCCCCCCCCCCCCC(=O)*; γGlu = O=C(O)[C@H](CCC(=O)[*:2])N[*:1]; AEEA = NCCOCCOCC(=O)O; Aib = CC(C)(N)C(=O)O

B1: SEQ ID NO: 194 (peptide)
peptide: H[Aib]EGTFTSDYSRLLEGAALQRFIQWLV-NH2
modifications: N-terminus assumed
SMILES: CC[C@H](C)[C@H](NC(=O)[C@H](Cc1ccccc1)NC(=O)[C@H](CCCNC(=N)N)NC(=O)[C@H](CCC(N)=O)NC(=O)[C@H](CC(C)C)NC(=O)[C@H](C)NC(=O)[C@H](C)NC(=O)CNC(=O)[C@H](CCC(=O)O)NC(=O)[C@H](CC(C)C)NC(=O)[C@H](CC(C)C)NC(=O)[C@H](CCCNC(=N)N)NC(=O)[C@H](CO)NC(=O)[C@H](Cc1ccc(O)cc1)NC(=O)[C@H](CC(=O)O)NC(=O)[C@H](CO)NC(=O)[C@@H](NC(=O)[C@H](Cc1ccccc1)NC(=O)[C@@H](NC(=O)CNC(=O)[C@H](CCC(=O)O)NC(=O)C(C)(C)NC(=O)[C@@H](N)Cc1c[nH]cn1)[C@@H](C)O)[C@@H](C)O)C(=O)N[C@@H](CCC(N)=O)C(=O)N[C@@H](Cc1c[nH]c2ccccc12)C(=O)N[C@@H](CC(C)C)C(=O)N[C@H](C(N)=O)C(C)C
B2: SEQ ID NO: 186 (peptide)
peptide: H[Aib]EGTFTSDWSRLLEGAALQRFIQWLV-NH2
modifications: N-terminus assumed
SMILES: CC[C@H](C)[C@H](NC(=O)[C@H](Cc1ccccc1)NC(=O)[C@H](CCCNC(=N)N)NC(=O)[C@H](CCC(N)=O)NC(=O)[C@H](CC(C)C)NC(=O)[C@H](C)NC(=O)[C@H](C)NC(=O)CNC(=O)[C@H](CCC(=O)O)NC(=O)[C@H](CC(C)C)NC(=O)[C@H](CC(C)C)NC(=O)[C@H](CCCNC(=N)N)NC(=O)[C@H](CO)NC(=O)[C@H](Cc1c[nH]c2ccccc12)NC(=O)[C@H](CC(=O)O)NC(=O)[C@H](CO)NC(=O)[C@@H](NC(=O)[C@H](Cc1ccccc1)NC(=O)[C@@H](NC(=O)CNC(=O)[C@H](CCC(=O)O)NC(=O)C(C)(C)NC(=O)[C@@H](N)Cc1c[nH]cn1)[C@@H](C)O)[C@@H](C)O)C(=O)N[C@@H](CCC(N)=O)C(=O)N[C@@H](Cc1c[nH]c2ccccc12)C(=O)N[C@@H](CC(C)C)C(=O)N[C@H](C(N)=O)C(C)C

How the values were obtained:
SCTR = SCTR (Homo sapiens, UniProt P47872); assay: hSCTR potency, cAMP accumulation in CHO-K1 cells stably overexpressing hSCTR; format: cell-based; set-up: alternatively Euroscreen ES-712-AF; FAST-0161L; host or cells: CHO-K1; settings: cAMP accumulation, CHO-K1 cells overexpressing hSCTR; read-out: hSCTR pEC50 (converted)
SCTR, sequence (P47872 23-440): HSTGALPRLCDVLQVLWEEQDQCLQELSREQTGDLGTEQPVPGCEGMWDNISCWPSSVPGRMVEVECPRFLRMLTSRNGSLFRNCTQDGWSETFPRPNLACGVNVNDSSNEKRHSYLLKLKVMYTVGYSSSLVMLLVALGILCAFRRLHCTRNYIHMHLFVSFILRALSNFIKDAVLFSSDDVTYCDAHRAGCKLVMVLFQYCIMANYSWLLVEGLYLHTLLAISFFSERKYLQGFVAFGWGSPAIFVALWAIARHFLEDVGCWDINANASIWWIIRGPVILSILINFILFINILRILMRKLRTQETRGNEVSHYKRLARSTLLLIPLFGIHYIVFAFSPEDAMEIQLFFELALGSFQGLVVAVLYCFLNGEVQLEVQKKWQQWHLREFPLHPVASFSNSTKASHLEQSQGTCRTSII
From the text: (§1) Crude library peptides are screened in 10-fold serial dilutions of 5 concentrations, n=1 time. Tip change is done for the first two serial dilutions. Compound starting concentration (top) will be adjusted throughout the study if needed.
(§2) Purified peptides are screened in 3-fold serial dilutions of 11 concentrations, n=2 times. Tip change is done for all serial dilutions. Compound starting concentration (top) will be adjusted throughout the study. If the top concentration is adjusted or a 5-fold difference in calculated EC50 values is observed, n is increased by 1. EC50 values were calculated by nonlinear regression using sigmoid concentration-response with variable slope.
(§3) Frozen division arrested CHO-K1 cells stably overexpressing the hSCTR were obtained from PerkinElmer (ES-712-AF). Alternatively, a CHO-K1 cell line stably overexpressing the hSCTR was obtained from Euroscreen (FAST-0161L), expanded, aliquoted and frozen. An aliquot was thawed and plated in DPBS with 0.05% casein and 0.5 mM IBMX as 2000 cells/well in a 384-well format. The cells were then immediately stimulated for 30 min at room temperature with graded doses of test compound using human secretin (synthesized at Gubra) as a positive control. cAMP accumulation was measured using a Cisbio assay for Gs coupled receptors (cat. no. 62AM4PEC), where the assay reagents were added as per the manufacturer's instructions and time-resolved fluorescence energy transfer recorded after one hour on a CLARIOstar (BMG Labtech) plate reader.

[1] = Turbidity of crude library peptides (absorbance at 600 nm); format: physicochemical; settings: Physical stability of peptides
Description: (§4) Peptides were dissolved in buffers (50 mM sodium acetate at pH 4.0, or 50 mM sodium phosphate at pH 7.0) to 267 μM and incubated for 1-2 hours at room temperature. The samples were then divided into two replicates of 80 μl in a black 384 well plate (μ-clear, Greiner Bio-One) and mixed with Thioflavin T (ThT) to a final concentration of 4 μM. The plate was centrifuged for 2 min at 2000 rpm to remove air bubbles, sealed, and placed in a plate reader (CLARIOstar, BMG). Firstly, turbidity of the samples was measured as the absorbance at 600 nm. Secondly, the plate reader temperature was set to 40° C. and the fluorescence was measured every 10 min for 72 hours by exciting the ThT at 450 nm and measuring the emission at 480 nm. Samples were stressed by shaking the plate at 700 rpm (linear) for five minutes before every measurement, and fibril formation was determined as the average emission for each sample.

GLP1R = GLP1R (Homo sapiens, UniProt P43220); assay: hGLP1R potency, cAMP accumulation in CHO-K1 cells stably overexpressing hGLP1R; format: cell-based; set-up: host or cells: CHO-K1; settings: for EC50: cAMP accumulation, CHO-K1 cells overexpressing hGLP1R, read-out: hGLP1R pEC50 (converted); for SCTR EC50/GLP1R EC50 ratio: selectivity for hGLP1R over hSCTR, cAMP accumulation in CHO-K1 cells
GLP1R, sequence (P43220 24-463): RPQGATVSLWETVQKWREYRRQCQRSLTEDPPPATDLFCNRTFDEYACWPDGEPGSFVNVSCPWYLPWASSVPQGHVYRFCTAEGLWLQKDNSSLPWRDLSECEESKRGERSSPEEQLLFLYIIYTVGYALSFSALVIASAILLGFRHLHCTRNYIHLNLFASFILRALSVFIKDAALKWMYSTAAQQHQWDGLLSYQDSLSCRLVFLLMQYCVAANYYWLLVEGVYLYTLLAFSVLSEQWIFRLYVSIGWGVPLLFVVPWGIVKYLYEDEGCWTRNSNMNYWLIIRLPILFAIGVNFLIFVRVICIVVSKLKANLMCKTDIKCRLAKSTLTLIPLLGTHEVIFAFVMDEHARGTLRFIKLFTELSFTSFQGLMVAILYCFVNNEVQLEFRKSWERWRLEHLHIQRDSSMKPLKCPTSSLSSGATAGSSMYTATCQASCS
From the text: as §1, §2
as §3, with “A” for “Frozen division arrested CHO-K1 cells stably overexpressing the hSCTR were obtained from PerkinElmer (ES-712-AF). Alternatively, a”, “hGLP1R” for “hSCTR”, “(FAST-0145L),” for “(FAST-0161L),”, “GLP-1(7-36)” for “secretin”

[2] = Fibril formation of crude library peptides (Thioflavin T); format: physicochemical; set-up: key: average ThT fluorescence emission at 480 nm (ex 450 nm), raw units; settings: Physical stability of peptides
Description: as §4

[3] = molecular target: human secretin receptor (hSCTR) (human, UniProt P47872 23-440); assay: cell-based or functional assay
human secretin receptor (hSCTR), sequence (P47872 23-440): as the sequence (P47872 23-440) above

| Molecule | EC50 (SCTR) [nM] | Turbidity (pH 7) [1] | EC50 (GLP1R) [nM] | SCTR EC50/GLP1R EC50 ratio (GLP1R) | Fibril formation [2] | pEC50 hSCTR [3] |
| --- | --- | --- | --- | --- | --- | --- |
| CC[C@H](C)[C@H](NC(=O)C(C)(C)NC(=O)[C@@H](N)Cc1c[nH]cn1)C(=O)NCC(=O)N[C@H](C(=O)N[C@@H](Cc1ccccc1)C(=O)N[C@H](C(=O)N[C@@H](CO)C(=O)N[C@@H](CC(=O)O)C(=O)N[C@H](C(=O)N[C@@H](CO)C(=O)N[C@@H](Cc1ccc(O)cc1)C(=O)N[C@@H](CC(C)C)C(=O)N[C@@H](CCCCNC(=O)COCCOCCNC(=O)COCCOCCNC(=O)CC[C@H](NC(=O)CCCCCCCCCCCCCCCCCCC(=O)O)C(=O)O)C(=O)N[C@@H](CCC(=O)O)C(=O)N[C@@H](CCC(=O)O)C(=O)N[C@@H](C)C(=O)NC(C)(C)C(=O)N[C@@H](CC(C)C)C(=O)N[C@@H](CCC(N)=O)C(=O)N[C@@H](CCCNC(=N)N)C(=O)N[C@@H](Cc1ccccc1)C(=O)N[C@@H](CC(C)C)C(=O)N[C@@H](CCC(=O)O)C(=O)N[C@@H](Cc1c[nH]cn1)C(=O)N[C@@H](CC(C)C)C(=O)N[C@H](C(N)=O)C(C)C)C(C)C)[C@@H](C)O)[C@@H](C)O [compound 175] (H-H[Aib]IGTFTSDVSYLK([AEEA-AEEA-γGlu-C20 diacid])EEA[Aib]LQRFLEHLV-NH2) | 7940 | 0.08 | 0.0316 | 247885 | 3296 | – |
| CC(C)C[C@H](NC(=O)[C@H](CCC(=O)O)NC(=O)[C@H](CCCCNC(=O)COCCOCCNC(=O)COCCOCCNC(=O)CC[C@H](NC(=O)CCCCCCCCCCCCCCCCCCC(=O)O)C(=O)O)NC(=O)[C@H](CC(C)C)NC(=O)[C@H](Cc1ccc(O)cc1)NC(=O)[C@H](CO)NC(=O)[C@@H](NC(=O)[C@H](CC(=O)O)NC(=O)[C@H](CO)NC(=O)[C@@H](NC(=O)[C@H](Cc1ccccc1)NC(=O)[C@@H](NC(=O)CNC(=O)[C@H](CCC(=O)O)NC(=O)C(C)(C)NC(=O)[C@@H](N)Cc1c[nH]cn1)[C@@H](C)O)[C@@H](C)O)C(C)C)C(=O)N[C@@H](C)C(=O)N[C@@H](C)C(=O)N[C@@H](C)C(=O)N[C@@H](CCC(N)=O)C(=O)N[C@@H](CCCNC(=N)N)C(=O)N[C@@H](Cc1ccccc1)C(=O)N[C@@H](CC(C)C)C(=O)N[C@@H](CCC(=O)O)C(=O)N[C@@H](Cc1c[nH]cn1)C(=O)N[C@@H](CC(C)C)C(=O)N[C@H](C(N)=O)C(C)C [compound 86] (H-H[Aib]EGTFTSDVSYLK([AEEA-AEEA-γGlu-C20 diacid])ELAAAQRFLEHLV-NH2) | 3980 | 0.08 | 0.2 | 19815 | 9344 | – |
| 216 (GUB06-046) (H[Aib]EGTFTSDLSRLLEGAALQRFIQWLV-NH2; N-terminus assumed; SMILES CC[C@H](C)[C@H](NC(=O)[C@H](Cc1ccccc1)NC(=O)[C@H](CCCNC(=N)N)NC(=O)[C@H](CCC(N)=O)NC(=O)[C@H](CC(C)C)NC(=O)[C@H](C)NC(=O)[C@H](C)NC(=O)CNC(=O)[C@H](CCC(=O)O)NC(=O)[C@H](CC(C)C)NC(=O)[C@H](CC(C)C)NC(=O)[C@H](CCCNC(=N)N)NC(=O)[C@H](CO)NC(=O)[C@H](CC(C)C)NC(=O)[C@H](CC(=O)O)NC(=O)[C@H](CO)NC(=O)[C@@H](NC(=O)[C@H](Cc1ccccc1)NC(=O)[C@@H](NC(=O)CNC(=O)[C@H](CCC(=O)O)NC(=O)C(C)(C)NC(=O)[C@@H](N)Cc1c[nH]cn1)[C@@H](C)O)[C@@H](C)O)C(=O)N[C@@H](CCC(N)=O)C(=O)N[C@@H](Cc1c[nH]c2ccccc12)C(=O)N[C@@H](CC(C)C)C(=O)N[C@H](C(N)=O)C(C)C) | – | 0.48 | – | – | 11040 | – |
| CC(C)C[C@H](NC(=O)[C@H](Cc1ccccc1)NC(=O)[C@H](CCCNC(=N)N)NC(=O)[C@H](CCC(N)=O)NC(=O)[C@H](CC(C)C)NC(=O)C(C)(C)NC(=O)[C@H](C)NC(=O)[C@H](CCC(=O)O)NC(=O)[C@H](CCC(=O)O)NC(=O)[C@H](CCCCNC(=O)COCCOCCNC(=O)COCCOCCNC(=O)CC[C@H](NC(=O)CCCCCCCCCCCCCCCCCCC(=O)O)C(=O)O)NC(=O)[C@H](CC(C)C)NC(=O)[C@H](Cc1ccc(O)cc1)NC(=O)[C@H](CO)NC(=O)[C@@H](NC(=O)[C@H](CC(=O)O)NC(=O)[C@H](CO)NC(=O)[C@@H](NC(=O)[C@H](Cc1ccccc1)NC(=O)[C@@H](NC(=O)CNC(=O)[C@H](CCC(N)=O)NC(=O)C(C)(C)NC(=O)[C@@H](N)Cc1c[nH]cn1)[C@@H](C)O)[C@@H](C)O)C(C)C)C(=O)N[C@@H](CCC(=O)O)C(=O)N[C@@H](Cc1c[nH]cn1)C(=O)N[C@@H](CC(C)C)C(=O)N[C@H](C(N)=O)C(C)C [compound 156] (H-H[Aib]QGTFTSDVSYLK([AEEA-AEEA-γGlu-C20 diacid])EEA[Aib]LQRFLEHLV-NH2) | – | 0.08 | – | 2941711 | 3949 | – |
| B1 | – | – | – | – | – | 8.8 -log M |
| B2 | – | – | – | – | – | 8.2 -log M |
